Source: patent US20250289822A1, “SOLID FORMS OF HIV INTEGRASE INHIBITORS” (priority 2024, published 2025)

Test: Hygroscopicity by dynamic vapor sorption (DVS): water sorption/desorption as a function of relative humidity
Type: physicochemical
Method: Hygroscopicity was studied using dynamic vapor sorption (DVS, TA Q5000 SA, TA Instruments, New Castle, DE or DVS, DVS Intrinsic, Surface Measurement Systems, London, UK). […] The water sorption and desorption were studied as a function of relative humidity (RH) at 25° C. […] Data analysis was performed using Universal Analysis 2000 Version 4.7A (TA Instruments, New Castle, DE) for TA DVS runs and Microsoft Excel for SMS DVS runs.

Compound: C[C@@H]1C=C[C@H](C)N2CN1n1cc(C(=O)NCc3c(F)cc(F)cc3F)c(=O)c(O)c1C2=O [Compound of Formula I, Form I, (1S,2R,5S)-8-hydroxy-2,5-dimethyl-7,9-dioxo-N-(2,4,6-trifluorobenzyl)-2,5,7,9-tetrahydro-1,6-methanopyrido[1,2-b][1,2,5]triazonine-10-carboxamide]
- solid form change after the DVS experiment (material checked post DVS experiment): not have changed form
- water absorbed (DVS) (up to 95% RH at 25° C.): about 0.15%
